The source of these data is EP4653450A1 (priority 2023, dated 2024).

Data set [1] has as its system SARS-CoV-2 Delta strain (B.1.617.2). Kind of data set: microbe, parasite or virus in culture. The settings on record: Severe acute respiratory syndrome coronavirus 2, Vero C1008.
In data set [2] the test system is SARS-CoV-2 Delta strain. To be noted: mouse, in vivo.
In data set [3] the test system is human plasma protein.
Protocol: Human plasma was purchased from BioIVT, anticoagulated with EDTA K2, and stored at -80 °C. The 96-well equilibrium dialysis plate was purchased from HTDialysis LLC. The equilibrium dialysis membrane was purchased from Gales Ferry.
The alkaline solution was titrated with the acidic solution until the pH value was 7.4, and the buffer could be stored at 4 °C for 7 days.
The dialysis membrane was soaked in ultrapure water for 60 min to separate the membrane into two pieces, then soaked with 20% ethanol for 20 min, and finally soaked with dialysis buffer for 20 min.
The frozen plasma was quickly thawed at room temperature.
The plasma was then centrifuged at 4 °C for 10 min at a centrifugal force of 3,220 g to remove clots, and the supernatant was collected into a new centrifuge tube. The pH of the plasma was measured and recorded.
A 10 mM DMSO stock solution of the test substance was prepared. 2 µL of the stock solution (10 mM) was diluted with 98 µL of DMSO to give a working solution (200 µM). […]
50 µL of blank plasma was added to the phosphate-buffered saline sample. […] The mixture was well mixed, and the sample was analyzed using liquid chromatography-mass spectrometry.
All calculations were performed by Microsoft Excel. The peak areas of the test substance on the buffer side and the plasma side were determined. […]
Data set [4] deals with 47 safety-related targets.
Description: For 78 tests related to 47 safe targets, the experimental methods used included: cAMP assay, calcium flux assay, hormone nuclear receptor assay, kinase binding assay, enzyme activity assay, neurotransmitter transporter assay, ion channel assay, and transporter assay.
The conditions of data set [5]: cynomolgus monkey, in vivo.
The subject of data set [6] is SARS-CoV-2 Omicron strain (B.1.1.529). Kind of data set: microbe, parasite or virus in culture. The settings on record: Severe acute respiratory syndrome coronavirus 2, Vero C1008.

Several values for one entry are separate records, joined by “and”; a condition that tells them apart may be missing. Equal entries are not always repeated.

Consider `CC(C)(C)C(NC(=O)C(F)(F)F)C(=O)N1CC2(CC1C(=O)NC(C#N)CC1CCNC1=O)SCCS2` (stereo not shown) [Compound of formula (I)], for which the IC50 in data set [1] was 40 nM. Further, in data set [2], the “Brain tissue (log10 copies/mg) Day 2” value was 1.04±0.24 log10 copies/mg and 0.77±0.20 log10 copies/mg; the body weight entry is listed as “not significantly reduced”; the “effect on viral titer in the lungs” value is recorded as “sustained inhibitory effect”; the “histopathological analysis of the lungs” value is recorded as “significantly ameliorated lung damage”. In addition, in data set [2], the “reduction of viral copy number in the lungs” value was 2.4 log10 copies/g, the “reduction of viral titer in the lungs (plaque assay)” value was “more than 3 log10 PFU/g”, the “viral titer in the lungs (plaque assay)” value is given as “the titer was not detected” and the “virus titer in the brains” value is given as “no virus titer was detected”. In data set [3], the “Free rate (F%) Replicate 1” value is 48.71% and the “Free rate (F%) Replicate 2” value is listed as 44.55%. In data set [4], the 50% effective concentration (EC50) was > 100000 nM. In data set [5], the arrhythmia entry is reported as “no test sample-related arrhythmia was observed”, the cardiovascular system changes entry is reported as “no test sample-related cardiovascular system changes were observed” and the “changes in ECG parameters or blood pressure” value was “no test sample-related changes in ECG parameters or blood pressure were observed”. For the same compound, in data set [6], half-maximal inhibition (IC50) required 120 nM.

What is called IC50 is the concentration at which inhibition is half-maximal. Low readings indicate higher potency, high ones lower potency. Usually EC50 stands for the concentration giving half of the maximal effect.
